In US12331040B2 (Karyopharm Therapeutics Inc., priority 2013, dated 2025):
Read-outs that look alike come from different tables or passages of the source.

Key:
Assay in all cases: MTT cell proliferation assay
Type in all cases: cell-based
MS751 cells = settings: Homo sapiens, MS751, MS751 cells, approximately 64-72 hours incubation
Procedure: (§1) The MTT cell proliferation assay was used to study the cytotoxic properties of the compounds. The assay was performed according to the method described by Roche Molecular Biochemicals, with minor modifications. The assay is based on the cleavage of the tetrazolium salt, MTT, in the presence of an electron-coupling reagent. The water-insoluble formazan salt produced must be solubilized in an additional step. Cells grown in a 96-well tissue culture plate were incubated with the MTT solution for approximately 4 hours. After this incubation period, a water-insoluble formazan dye formed. After solubilization, the formazan dye was quantitated using a scanning multi-well spectrophotometer (ELISA reader). […] The cells were seeded at 5,000-10,000 cells in each well of 96-well plate in 100 μL of fresh culture medium and were allowed to attach overnight. The stock solutions of the compounds were diluted in 100 μL cell culture medium to obtain eight concentrations of each test compound, ranging from 1 nM to 30 μM. […] All optical densities were measured at 490 nm using a Vmax Kinetic Microplate Reader (Molecular Devices). In most cases, the assay was performed in duplicate and the results were presented as a mean percent inhibition to the negative control±SE. The following formula was used to calculate the percent of inhibition: Inhibition (%)=(1−(ODo/OD))×100.
(§2) The compounds were tested against MS751, Z138 and 3T3 cells. The MS751 cell line is derived from a metastasis to lymph node of human cervix from a patient diagnosed with squamous cell carcinoma of the cervix. The Z138 cell line is a mature B-cell acute lymphoblastic leukemia cell line derived from a patient with chronic lymphocytic leukemia. 3T3 cells are standard fibroblast cells; they were originally isolated from Swiss mouse embryo tissue.

Z138 cells = settings: Homo sapiens, Z-138, Z138 cells, approximately 64-72 hours incubation
Procedure: as §1, §2

3T3 cells = settings: Mus musculus, NIH3T3, approximately 64-72 hours incubation
Procedure: as §1, §2

[1] = read-out: MTT Assay IC50, MS-751
[2] = read-out: MTT Assay IC50, Z-138
[3] = read-out: MTT Assay IC50 MS-751

SMILES	IC50 (MS751 cells; [1])	IC50 (Z138 cells; [2])	IC50 (3T3 cells; read-out: MTT Assay IC50, 3T3)	IC50 (MS751 cells; [3])	IC50 (Z138 cells; read-out: MTT Assay IC50 Z-138)	IC50 (3T3 cells; read-out: MTT Assay IC50 3T3)
Nc1ccc(/C=C/C(=O)NCc2cc3cc(-c4ccc(C(=O)N5CCC(F)(F)CC5)cc4)cc(-c4ccc(Cl)cc4)c3o2)cn1 [Compound 742, (E)-3-(6-aminopyridin-3-yl)-N-((7-(4-chlorophenyl)-5-(4-(4,4-difluoropiperidine-1-carbonyl)phenyl)benzofuran-2-yl)methyl)acrylamide]	0.1 to 5 µM	0.1 to 5 µM	> 10 µM			
Nc1ccc(/C=C/C(=O)NCc2cc3cc(-c4ccc(C(=O)N5CCC(F)(F)CC5)cc4)cc(-c4ccncc4F)c3o2)cn1 [Compound 696, (E)-3-(6-aminopyridin-3-yl)-N-((5-(4-(4,4-difluoropiperidine-1-carbonyl)phenyl)-7-(3-fluoropyridin-4-yl)benzofuran-2-yl)methyl)acrylamide]	< 0.1 µM	< 0.1 µM	0.1 to 5 µM			
CC1(C)CN(C(=O)c2ccc(-c3cc(C(F)(F)F)c4oc(CNC(=O)/C=C/c5ccc(N)nc5)cc4c3)cc2)CCN1 [Compound 572, (E)-3-(6-aminopyridin-3-yl)-N-((5-(4-(3,3-dimethylpiperazine-1-carbonyl)phenyl)-7-(trifluoromethyl)benzofuran-2-yl)methyl)acrylamide]				< 0.1 µM	< 0.1 µM	0.1 to 5 µM
Nc1ccc(/C=C/C(=O)NCc2cc3cc(-c4ccc(C(=O)N5CCC(F)(F)CC5)cc4)cc(-c4ccc(F)c(F)c4)c3o2)cn1 [Compound 737, (E)-3-(6-aminopyridin-3-yl)-N-((7-(3,4-difluorophenyl)-5-(4-(4,4-difluoropiperidine-1-carbonyl)phenyl)benzofuran-2-yl)methyl)acrylamide]	< 0.1 µM	< 0.1 µM	0.1 to 5 µM			
Nc1ccc(/C=C/C(=O)NCc2cc3cc(-c4ccc(C(=O)N5CCC(F)(F)CC5)cc4)cc(-c4ccc(F)cc4Cl)c3o2)cn1 [Compound 738, (E)-3-(6-aminopyridin-3-yl)-N-((7-(2-chloro-4-fluorophenyl)-5-(4-(4,4-difluoropiperidine-1-carbonyl)phenyl)benzofuran-2-yl)methyl)acrylamide]	< 0.1 µM	< 0.1 µM	0.1 to 5 µM			
Nc1ccc(/C=C/C(=O)NCc2cc3cc(-c4ccc(S(=O)(=O)N5CC[C@H](F)C5)cc4)cc(Cl)c3o2)cn1 [Compound 643, (S,E)-3-(6-aminopyridin-3-yl)-N-((7-chloro-5-(4-(3-fluoropyrrolidin-1-ylsulfonyl)phenyl)benzofuran-2-yl)methyl)acrylamide]				0.1 to 5 µM	0.1 to 5 µM	> 10 µM
CO[C@@H]1CN(C(=O)c2ccc(-c3cc(C(F)(F)F)c4oc(CNC(=O)/C=C/c5ccc(N)nc5)cc4c3)nc2)C[C@H]1F [Compound 628, (E)-3-(6-aminopyridin-3-yl)-N-((5-(5-(3-fluoro-4-methoxypyrrolidine-1-carbonyl)pyridin-2-yl)-7-(trifluoromethyl)benzofuran-2-yl)methyl)acrylamide]				0.1 to 5 µM	0.1 to 5 µM	> 10 µM
Nc1ccc(/C=C/C(=O)NCc2cc3cc(-c4ccc(C(=O)NCc5cccnc5)cn4)cc(C(F)(F)F)c3o2)cn1 [Compound 630, (E)-6-(2-((3-(6-aminopyridin-3-yl)acrylamido)methyl)-7-(trifluoromethyl)benzofuran-5-yl)-N-(pyridin-3-ylmethyl)nicotinamide]				< 0.1 µM	< 0.1 µM	0.1 to 5 µM
Nc1ccc(/C=C/C(=O)NCc2cc3cc(-c4ccc(C(=O)NNc5cnccn5)cc4)cc(C(F)(F)F)c3o2)cn1 [Compound 519, (E)-3-(6-aminopyridin-3-yl)-N-((5-(4-(2-(pyrazin-2-yl)hydrazinecarbonyl)phenyl)-7-(trifluoromethyl)benzofuran-2-yl)methyl)acrylamide]				0.1 to 5 µM	0.1 to 5 µM	> 10 µM
Nc1ccc(/C=C/C(=O)NCc2cc3cc(-c4cccc(C(=O)N5CCOCC5)c4)cc(C(F)(F)F)c3o2)cn1 [Compound 717, (E)-3-(6-aminopyridin-3-yl)-N-((5-(3-(morpholine-4-carbonyl)phenyl)-7-(trifluoromethyl)benzofuran-2-yl)methyl)acrylamide]	0.1 to 5 µM	< 0.1 µM	> 10 µM			
Nc1ccc(/C=C/C(=O)NCc2cc3cc(-c4ccc(C(=O)N5CCC(F)(F)CC5)cc4)cc(-c4cc5ccccc5o4)c3o2)cn1 [Compound 699]	< 0.1 µM	< 0.1 µM	5 to 10 µM			
Nc1ccc(/C=C/C(=O)NCc2cc3cc(-c4ncc(C(=O)N5CCOCC5)cn4)cc(Cl)c3o2)cn1 [Compound 583, (E)-3-(6-aminopyridin-3-yl)-N-((7-chloro-5-(5-(morpholine-4-carbonyl)pyrimidin-2-yl)benzofuran-2-yl)methyl)acrylamide]				0.1 to 5 µM	0.1 to 5 µM	> 10 µM
Nc1ccc(/C=C/C(=O)NCc2cc3cc(-c4ccc(C(=S)N5CCC(F)(F)CC5)cc4F)cc(-c4ccc(F)cc4)c3o2)cn1 [Compound 758, (E)-3-(6-aminopyridin-3-yl)-N-((5-(4-(4,4-difluoropiperidine-1-carbonothioyl)-2-fluorophenyl)-7-(4-fluorophenyl)benzofuran-2-yl)methyl)acrylamide]	< 0.1 µM	< 0.1 µM	> 10 µM			
Nc1ccc(/C=C/C(=O)NCc2cc3cc(-c4ccc(C(=O)N5CCC(F)(F)CC5)cn4)cc(-c4ccc5cnccc5c4)c3o2)cn1 [Compound 672, (E)-3-(6-aminopyridin-3-yl)-N-((5-(5-(4,4-difluoropiperidine-1-carbonyl)pyridin-2-yl)-7-(isoquinolin-6-yl)benzofuran-2-yl)methyl)acrylamide]	0.1 to 5 µM	0.1 to 5 µM	> 10 µM			
Nc1ccc(/C=C/C(=O)NCc2cc3cc(-c4ccc(C(=O)N5CCC(F)(F)CC5)cc4)cc(-c4cccc(C(F)(F)F)c4)c3o2)cn1 [Compound 731, (E)-3-(6-aminopyridin-3-yl)-N-((5-(4-(4,4-difluoropiperidine-1-carbonyl)phenyl)-7-(3-(trifluoromethyl)phenyl)benzofuran-2-yl)methyl)acrylamide]	0.1 to 5 µM	< 0.1 µM	0.1 to 5 µM			
Nc1ccc(/C=C/C(=O)NCc2cc3cc(-c4ccc(F)c(S(=O)(=O)N5CCOCC5)c4)cc(Cl)c3o2)cn1 [Compound 636, (E)-3-(6-aminopyridin-3-yl)-N-((7-chloro-5-(4-fluoro-3-(morpholinosulfonyl)phenyl)benzofuran-2-yl)methyl)acrylamide]				0.1 to 5 µM	0.1 to 5 µM	> 10 µM
O=C(/C=C/c1cccnc1)NCc1cc2cc(-c3ccc(C(=O)N4CCC(F)(F)CC4)cc3)cc(-c3cccc(F)c3)c2o1 [Compound 727, (E)-N-((5-(4-(4,4-difluoropiperidine-1-carbonyl)phenyl)-7-(3-fluorophenyl)benzofuran-2-yl)methyl)-3-(pyridin-3-yl)acrylamide]	< 0.1 µM	< 0.1 µM	< 0.1 µM			
Nc1ccc(/C=C/C(=O)NCc2cc3cc(-c4ccc(C(=O)N5CCC(F)(F)CC5)cc4)cc(-c4cc(Cl)cc(Cl)c4)c3o2)cn1 [Compound 700, (E)-3-(6-aminopyridin-3-yl)-N-((7-(3,5-dichlorophenyl)-5-(4-(4,4-difluoropiperidine-1-carbonyl)phenyl)benzofuran-2-yl)methyl)acrylamide]	< 0.1 µM	< 0.1 µM	0.1 to 5 µM			
Nc1ccc(/C=C/C(=O)NCc2cc3cc(C4CC4C(=O)N4CCC(F)(F)CC4)cc(C(F)(F)F)c3o2)cn1 (stereo not drawn) [Compound 695, (E)-3-(6-aminopyridin-3-yl)-N-((5-(2-(4,4-difluoropiperidine-1-carbonyl)cyclopropyl)-7-(trifluoromethyl)benzofuran-2-yl)methyl)acrylamide]	0.1 to 5 µM	0.1 to 5 µM	> 10 µM			
Nc1ccc(/C=C/C(=O)NCc2cc3cc(-c4ccc(C(=O)N5CCC(F)(F)CC5)cc4)cc(-c4ccc(C(F)(F)F)cc4)c3o2)cn1 [Compound 733, (E)-3-(6-aminopyridin-3-yl)-N-((5-(4-(4,4-difluoropiperidine-1-carbonyl)phenyl)-7-(4-(trifluoromethyl)phenyl)benzofuran-2-yl)methyl)acrylamide]	0.1 to 5 µM	0.1 to 5 µM	> 10 µM			
Nc1ccc(/C=C/C(=O)NCc2cc3cc(C(F)(F)F)cc(-c4ccc(C(=O)N5CCC(F)(F)CC5)cc4)c3o2)cn1 [Compound 702, (E)-3-(6-aminopyridin-3-yl)-N-((7-(4-(4,4-difluoropiperidine-1-carbonyl)phenyl)-5-(trifluoromethyl)benzofuran-2-yl)methyl)acrylamide]	5 to 10 µM	0.1 to 5 µM	> 10 µM			
